Assay results taken from patent US5489591A, “S-triazine derivative and remedy for estrogen-dependent disease containing said derivative as effective component” (Zenyaku Kogyo Kabushiki Kaisha, priority 1992, dated 1996).

Legend:
[1] = target: T1, cholesterol side-chain cleaving enzyme (Sus scrofa, UniProt P10612); assay: Inhibitory activity against cholesterol side-chain cleaving enzyme (Pharmacological Test 2, porcine adrenal mitochondria); format: biochemical; conditions: substrate 5-cholesten-3β-ol 5.0×10^-6 M, read-out: SCC-IC50
T1 construct: porcine adrenal mitochondria; from tissue; host or cells: porcine adrenal mitochondria
T1 sequence (P10612 40-520): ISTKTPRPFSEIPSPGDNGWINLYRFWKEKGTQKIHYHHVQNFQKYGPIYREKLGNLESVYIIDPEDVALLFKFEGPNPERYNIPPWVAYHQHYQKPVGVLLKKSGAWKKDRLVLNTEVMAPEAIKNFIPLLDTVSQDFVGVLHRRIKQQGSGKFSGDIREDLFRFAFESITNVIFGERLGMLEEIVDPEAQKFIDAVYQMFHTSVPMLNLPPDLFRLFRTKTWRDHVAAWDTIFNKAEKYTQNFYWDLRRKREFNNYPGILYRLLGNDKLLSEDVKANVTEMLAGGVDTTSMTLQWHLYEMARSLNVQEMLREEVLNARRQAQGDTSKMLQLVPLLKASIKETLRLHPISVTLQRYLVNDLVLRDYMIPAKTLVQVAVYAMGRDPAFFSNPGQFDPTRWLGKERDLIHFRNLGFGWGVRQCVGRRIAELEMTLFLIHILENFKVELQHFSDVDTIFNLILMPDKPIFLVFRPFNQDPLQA
Procedure: Inhibitory activity against cholesterol side-chain cleaving enzyme was determined according to the method of M. Shikita and P. F. Hall [Proc. Nat. […] Briefly, the each compound to be tested was added to a reaction vial containing porcine adrenal mitochondria, [4-^14 C]5-cholesten-3β-ol (250 Bq/5 nmol) and NADPH. […] These were separated by extracting the reaction mixture with methylene-dichloride followed by purifying with thin-layer chromatography. Substrate (5-cholesten-3β-ol) and reaction product (3β-hydroxypregn-5-en-20-one) were respectively measured by a liquid scintillation counter. The measured quantity of 3β-hydroxypregn-5-en-20-one was used to determine cholesterol side-chain cleaving activity which was compared with the activity when incubated without inhibitor to calculate inhibition ratio (%).

[2] = target: T2, Aromatase (Homo sapiens, UniProt P11511); assay: Aromatase inhibitory activity (Pharmacological Test 1, human placenta microsome); format: biochemical; conditions: substrate 4-androsten-3,17-dione 1.0×10^-6 M, read-out: AI-IC50
T2 construct: human placenta microsome; from tissue; host or cells: human placenta microsomes
T2 sequence (P11511 1-503): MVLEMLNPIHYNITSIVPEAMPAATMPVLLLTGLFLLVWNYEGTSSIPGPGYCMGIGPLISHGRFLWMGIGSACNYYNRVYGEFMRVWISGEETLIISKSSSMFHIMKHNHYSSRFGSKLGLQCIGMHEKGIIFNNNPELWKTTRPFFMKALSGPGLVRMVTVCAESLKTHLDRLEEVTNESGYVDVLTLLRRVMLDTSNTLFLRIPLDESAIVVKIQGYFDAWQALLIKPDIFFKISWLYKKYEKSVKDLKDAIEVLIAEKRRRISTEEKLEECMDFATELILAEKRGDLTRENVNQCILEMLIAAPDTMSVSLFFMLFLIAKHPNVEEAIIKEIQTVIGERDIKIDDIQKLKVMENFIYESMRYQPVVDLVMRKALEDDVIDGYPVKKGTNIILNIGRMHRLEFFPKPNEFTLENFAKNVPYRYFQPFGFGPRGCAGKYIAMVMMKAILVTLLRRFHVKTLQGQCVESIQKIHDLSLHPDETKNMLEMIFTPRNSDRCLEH
Procedure: Aromatase inhibitory activity was determined according to the method of E. A. Thompson and P. K. Siiteri [J. Biol. Chem., 249, 5364-5372 (1974)]. The each compound to be tested was added to a reaction vial containing human placenta microsome, [1β,2 β-^3 H]4-androsten-3,17-dione (3.3 kBq/500 pmol) and NADPH. […] The obtained [^3 H]H2 O was measured by a liquid scintillation counter. The measured quantity of [3H]H20 was used to determine aromatase activity, and was compared with the activity when incubated without inhibitor to calculate inhibition ratio (%).

Row | Structure (SMILES) | IC50 [1] [nM] | IC50 [2] [nM]
1 | CCC1(c2ccc(N)cc2)CCC(=O)NC1=O (centres unmarked) [AG, aminoglutethimide, reference compound] | 66000 | –
2 | CN(C)c1nc(N2CCOCC2)nc(-n2ccnc2)n1 [Compound 1, 2-(1-Imidazolyl)-4-dimethylamino-6-morpholino-1,3,5-triazine] | > 100000 | 10
3 | CN(C)c1nc(N2CCCC2)nc(-n2ccnc2)n1 [Compound 2, 2-(1-Imidazolyl)-4-dimethylamino-6-(1-pyrrolidinyl)-1,3,5-triazine] | > 100000 | 1300
4 | CN(C)c1nc(N2CCCCC2)nc(-n2ccnc2)n1 [Compound 3, 2-(1-Imidazolyl)-4-dimethylamino-6-piperidino-1,3,5-triazine] | > 100000 | 770
5 | Cc1ncn(-c2nc(N(C)C)nc(-n3ccnc3)n2)c1C [Compound 5, 2-(1-Imidazolyl)-4-dimethylamino-6-(4,5-dimethyl-1-imidazolyl)-1,3,5-triazine] | > 100000 | 200
6 | CC(C)c1nccn1-c1nc(N(C)C)nc(-n2ccnc2)n1 [Compound 6, 2-(1-Imidazolyl)-4-(2-isopropyl-1-imidazolyl)-6-dimethylamino-1,3,5-triazine] | > 100000 | 4300
7 | c1ccc(N2CCN(c3nc(N4CCOCC4)nc(-n4ccnc4)n3)CC2)nc1 [Compound 8, 2-(1-Imidazolyl)-4-morpholino-6-[4-(2-pyridyl)-1-piperazinyl]-1,3,5-triazine] | 54000 | 11
8 | c1ccc(CN2CCN(c3nc(N4CCOCC4)nc(-n4ccnc4)n3)CC2)cc1 [Compound 9, 2-(4-Benzyl-1-piperazinyl)-4-(1-imidazolyl)-6-morpholino-1,3,5-triazine] | 15000 | 17
9 | CC1CN(c2nc(N3CCOCC3)nc(-n3ccnc3)n2)CC(C)O1 (centres unmarked) [Compound 10, 2-(1-Imidazolyl)-4-(2,6-dimethylmorpholino)-6-morpholino-1,3,5-triazine] | > 100000 | 31
10 | CC1CC(C)CN(c2nc(N3CCOCC3)nc(-n3ccnc3)n2)C1 (centres unmarked) [Compound 11, 2-(1-Imidazolyl)-4-(3,5-dimethylpiperidino)-6-morpholino-1,3,5-triazine] | 19000 | 11
11 | c1cn(-c2nc(N3CCOCC3)nc(N3CCC4(CC3)OCCO4)n2)cn1 [Compound 12, 2-(4,4-Ethylenedioxypiperidino)-4-(1-imidazolyl)-6-morpholino-1,3,5-triazine] | > 100000 | 24
12 | CN(c1ccccc1)c1nc(N2CCOCC2)nc(-n2ccnc2)n1 [Compound 14, 2-(1-Imidazolyl)-4-(N-methyl-N-phenylamino)-6-morpholino-1,3,5-triazine] | 31000 | 6.7
13 | c1cn(-c2nc(N3CCCC3)nc(N3CCCC3)n2)cn1 [Compound 17, 2-(1-Imidazolyl)-4,6-bis(1-pyrrolidinyl)-1,3,5-triazine] | > 100000 | 310
14 | c1cn(-c2nc(N3CCCCC3)nc(N3CCCCC3)n2)cn1 [Compound 18, 2-(1-Imidazolyl)-4,6-dipiperidino-1,3,5-triazine] | > 100000 | 310
15 | c1cn(-c2nc(N3CCSCC3)nc(N3CCSCC3)n2)cn1 [Compound 21, 2-(1-Imidazolyl)-4,6-bis(thiomorpholino)-1,3,5-triazine] | 100000 | 5.1
16 | c1cn(-c2nc(N3CCOCC3)nc(-n3ccnc3)n2)cn1 [Compound 23, 2,4-Bis(1-imidazolyl)-6-morpholino-1,3,5-triazine] | > 100000 | 21
17 | CC(C)(C)OC(=O)C1CCCN1c1nc(N2CCOCC2)nc(-n2ccnc2)n1 (centres unmarked) [Compound 41, 2-(2-tert-Butoxycarbonyl-1-pyrrolidinyl)-4-(1-imidazolyl)-6-morpholino-1,3,5-triazine] | > 100000 | 37
18 | CC1CN1c1nc(N2CCOCC2)nc(-n2ccnc2)n1 (centres unmarked) [Compound 42, 2-(1-Imidazolyl)-4-(2-methyl-1-aziridinyl)-6-morpholino-1,3,5-triazine] | > 100000 | 57

Now from value to compound:

Row | IC50 [1] [nM] | IC50 [2] [nM] | Structure (SMILES)
19 | 80000 | 550 | CN(C)c1nc(-n2ccnc2)nc(-n2ccnc2)n1 [Compound 24, 2,4-Bis(1-imidazolyl)-6-dimethylamino-1,3,5-triazine]
20 | 25000 | 60 | CCN(CC)c1nc(-n2ccnc2)nc(-n2ccnc2)n1 [Compound 25, 2,4-Bis(1-imidazolyl)-6-diethylamino-1,3,5-triazine]
21 | > 100000 | 62 | c1cn(-c2nc(N3CCCC3)nc(-n3ccnc3)n2)cn1 [Compound 26, 2,4-Bis(1-imidazolyl)-6-(1-pyrrolidinyl)-1,3,5-triazine]
22 | > 100000 | 64 | c1cn(-c2nc(N3CCCCC3)nc(-n3ccnc3)n2)cn1 [Compound 27, 2,4-Bis(1-imidazolyl)-6-piperidino-1,3,5-triazine]
23 | 9500 | 62 | c1ccc(C2CCN(c3nc(-n4ccnc4)nc(-n4ccnc4)n3)CC2)cc1 [Compound 28, 2,4-Bis(1-imidazolyl)-6-(4-phenylpiperidino)-1,3,5-triazine]
24 | 75000 | 230 | CN1CCN(c2nc(-n3ccnc3)nc(-n3ccnc3)n2)CC1 [Compound 29, 2,4-Bis (1-imidazolyl)-6-(4-methyl-1-piperazinyl)-1,3,5-triazine]
25 | 65000 | 220 | c1ccc(N2CCN(c3nc(-n4ccnc4)nc(-n4ccnc4)n3)CC2)cc1 [Compound 30, 2,4-Bis(1-imidazolyl)-6-(4-phenyl-1-piperazinyl)-1,3,5-triazine]
26 | > 100000 | 43 | c1cn(-c2nc(N3CCSCC3)nc(-n3ccnc3)n2)cn1 [Compound 31, 2,4-Bis (1-imidazolyl)-6-thiomorpholino-1,3,5-triazine]
27 | 16000 | 29 | CN(c1ccccc1)c1nc(-n2ccnc2)nc(-n2ccnc2)n1 [Compound 32, 2,4-Bis(1-imidazolyl)-6-(N-methyl-N-phenylamino)-1,3,5-triazine]
28 | 12000 | 14 | CCCCN(CCCC)c1nc(-n2ccnc2)nc(-n2ccnc2)n1 [Compound 36, 2-(Di-n-butylamino)-4,6-bis(1-imidazolyl)-1,3,5-triazine]
29 | 37000 | 20 | c1ccc(C2CCN(c3nc(N4CCSCC4)nc(-n4ccnc4)n3)CC2)cc1 [Compound 39, 2-(1-Imidazolyl)-4-(4-phenylpiperidino)-6-thiomorpholino-1,3,5-triazine]
30 | 66000 | 24 | CCOC(=O)C1CCN(c2nc(N3CCOCC3)nc(-n3ccnc3)n2)CC1 [Compound 40, 2-(4-Ethoxycarbonylpiperidino)-4-(1-imidazolyl)-6-morpholino-1,3,5-triazine]
31 | > 100000 | 20 | Fc1ccc(N2CCN(c3nc(N4CCOCC4)nc(-n4ccnc4)n3)CC2)cc1 [Compound 43, 2-[4-(4-Fluorophenyl)-1-piperazinyl]-4-(1-imidazolyl)-6-morpholino-1,3,5-triazine]
32 | > 100000 | – | CN(C)c1nc(N(C)C)nc(N(C)C)n1 [HMM, hexamethylmelamine, reference compound]
